This is an account of results in patent publication US20200000822A1, “METHODS OF TREATMENT FOR CANCER, STEROL HOMEOSTASIS, AND NEUROLOGICAL DISEASES” (BOARD OF REGENTS, THE UNIVERSITY OF TEXAS SYSTEM, priority 2017, published 2020).

Entries after “also recorded” stand apart in the source; their conditions may differ.

In one data set the target is T1, human TMEM97 (Homo sapiens, UniProt Q5BJF2).
T1 construct: made in house; host or cells: Sf9 insect cells (baculovirus, pVL1392, BestBac)
The data set is described as follows: ^3H DTG competition binding in Sf9 insect membranes overexpressing TMEM97. Particulars: competition with 30 nM ^3H DTG. As for the experimental part: For insect cell expression, human TMEM97 was cloned into the vector pVL1392, and baculovirus was prepared using the BestBac system (Expression Systems) in accordance with manufacturer's instructions. For large scale production, Sf9 insect cells were infected at a density of 4×10^6 cells/mL and then shaken at 27° C. for 60 hours prior to harvest.
(§1) Membranes were prepared from PC-12, MCF-7, Sf9, or Expi293 cells. In brief, adherent cells were washed with ice cold PBS or HBS and harvested with a cell scraper, while suspension cells were simply pelleted. Cell pellets were suspended in 20 mM HEPES pH 7.5, 2 mM magnesium chloride, and 1:100,000 (v:v) benzonase nuclease (Sigma Aldrich) and supplemented with cOmplete Mini, EDTA-free Protease Inhibitor Cocktail Tablets (Roche). Following dounce homogenization, the cells were centrifuged at 50,000×g for 20 minutes. The supernatant was discarded and the membranes were washed one more time with cold 50 mM Tris pH 8.0 containing cOmplete Mini, EDTA-free Protease Inhibitor Cocktail Tablets (Roche, 1 tablet per 50 mL buffer). The membranes were centrifuged once more at 50,000× for 20 minutes, and then resuspended in a variable volume of cold 50 mM Tris pH 8.0 with the same protease inhibitor cocktail. Protein content was assessed by DC protein assay (Bio-Rad) according to manufacturer's instructions. Membranes were aliquoted, flash frozen, and stored at −80° C. until use in the radioligand binding experiments described below.
1.8 μM (+)SKF-10,047 was included to block 1l receptor sites in all MCF-7 membranes binding assays and in Sf9 membranes when testing TMEM97 ligands. Reactions were incubated for 90 minutes at 37° C., and were then terminated by filtration through a glass fiber filter using a Brandel cell harvester. Glass fiber filters were soaked in 0.3% polyethylenimine for at least 30 minutes at room temperature prior to harvesting. All reactions were performed in triplicate using a 96-well block. After the membranes were transferred to the filters and washed, the filters were soaked in 5 mL Cytoscint scintillation fluid overnight and radioactivity was measured using a Beckman Coulter LS 6500 scintillation counter. Data were analyzed using software from Graphpad Prism. Ki values were computed directly without the use of the Cheng-Prusoff correction using the Graphpad Prism software.

The next data set addresses T2, PGRMC1 (Homo sapiens, UniProt O00264).
T2 construct: mCardinal (behind the 2A skip peptide, reporter of transfection) (C, cleaved yes); expressed in transfected cells
As to the kind of experiment: single-point ^3H DTG binding, HEK293 cells overexpressing PGRMC1. The settings on record: 10 nM ^3H DTG. As for the experimental part:
Eight selected hits from LC-MS/MS were cloned into a pTARGET vector (Promega), followed by a porcine teschovirus-1 2A skip peptide ([…] (SEQ ID NO: 3)) and by the fluorescent protein mCardinal40 to assess transfection efficiency. Plasmids were transfected into Expi293 cells (Thermo Fisher) according to manufacturer's instructions. After 36 hours, expression of each target protein was confirmed by flow cytometry analysis of mCardinal fluorescence levels. Receptor point mutants were generated by site-directed mutagenesis using KAPA polymerase (KAPA Biosystems), and resulting constructs were expressed in Expi293 cells as described above.
Membranes were prepared from PC-12, MCF-7, Sf9, or Expi293 cells. In brief, adherent cells were washed with ice cold PBS or HBS and harvested with a cell scraper, while suspension cells were simply pelleted. Cell pellets were suspended in 20 mM HEPES pH 7.5, 2 mM magnesium chloride, and 1:100,000 (v:v) benzonase nuclease (Sigma Aldrich) and supplemented with cOmplete Mini, EDTA-free Protease Inhibitor Cocktail Tablets (Roche). […] Protein content was assessed by DC protein assay (Bio-Rad) according to manufacturer's instructions. […]
Membrane radioligand binding assays were performed as described 41 with slight modifications. […] Radioactivity was measured by liquid scintillation counting.

For data set [1], the target named is sigma-2 receptor (Homo sapiens, UniProt Q5BJF2). The data set is described as follows: ^3H DTG competition binding in MCF-7 cell membranes. Particulars: competition with 30 nM ^3H DTG. As for the experimental part:
as §1, with “The membranes were centrifuged once more at 50,000× for 20 minutes, and then resuspended in a variable volume of cold 50 mM Tris pH 8.0 with the same protease inhibitor cocktail.” left out, “Membranes were aliquoted, flash frozen, and stored at −80° C. until use in the radioligand binding experiments described below.” left out
1.8 μM (+)SKF-10,047 was included to block 1l receptor sites in all MCF-7 membranes binding assays and in Sf9 membranes when testing TMEM97 ligands. […] After the membranes were transferred to the filters and washed, the filters were soaked in 5 mL Cytoscint scintillation fluid overnight and radioactivity was measured using a Beckman Coulter LS 6500 scintillation counter. Data were analyzed using software from Graphpad Prism. […]

Data set [2] concerns the target T3, sigma-2 receptor (Rattus norvegicus, UniProt Q5U3Y7).
T3 construct: endogenous in cells; host or cells: PC-12 cells
T3 sequence (Q5U3Y7 1-176): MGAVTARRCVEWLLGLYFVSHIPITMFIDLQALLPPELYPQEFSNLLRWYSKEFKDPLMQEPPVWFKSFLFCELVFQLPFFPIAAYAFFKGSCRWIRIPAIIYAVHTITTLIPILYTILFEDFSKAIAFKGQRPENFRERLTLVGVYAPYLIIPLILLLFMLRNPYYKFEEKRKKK
As to the kind of experiment: siRNA knockdown of Tmem97 in PC-12 cells, sigma-2 expression by saturating ^3H DTG binding. Type of data set: cell-based. The settings on record: compared with mRNA reduction. The method, then:
as §1, with “Cell pellets were suspended in 20 mM HEPES pH 7.5, 2 mM magnesium chloride, and 1:100,000 (v:v) benzonase nuclease (Sigma Aldrich) and supplemented with cOmplete Mini, EDTA-free Protease Inhibitor Cocktail Tablets (Roche).” left out, “-80°” for “−80°”, “below. Membrane radioligand binding assays were performed as described 41 with slight modifications. […] Samples were incubated at room temperature with shaking for 1.5 hours, at which time the reaction was terminated by the addition of ice-cold water. Samples were then applied to glass fiber filters (Merck Millipore) that had been pre-treated with 0.3% (v/v) polyethylenimine. […] Radioactivity was measured by liquid scintillation counting. […]” for “below.”

The next data set deals with Tmem97 mRNA. The data set is described as follows: siRNA knockdown of Tmem97 in PC-12 cells, qPCR of mRNA. The class given is cell-based, Rattus norvegicus. Particulars: 10 nM siRNA. As for the experimental part:
A pair of siRNA oligos were designed against Rattus norvegicus Tmem97 mRNA using the Stealth RNAi™ tool available through ThermoFisher Scientific. The sense strand for the siRNA was 5′-[…]-3′ (SEQ ID NO: 4), and the antisense strand was 5′-[…]-3′ (SEQ ID NO: 5). As a control, we used the AllStars Negative Control siRNA™ from Qiagen. For the transfection, 2.2×10^6 PC-12 cells suspended in 8.0 mL of DMEM with 10% FBS and 10 μg/mL of gentamicin were placed in a 10 cm dish and immediately transfected with a 2.0 mL solution containing 20 μL of Lipofectamine® RNAimax from ThermoFisher Scientific and 10 nM of either the control or Tmem97 siRNA. After 24 hours, the media was changed for fresh media, and the cells were transfected again in the same way. 48 hours after the first transfection, the cells were trypsinized and split 1:2 into two new 10 cm plates. On the 5th day after the first transfection, cells were harvested by trypsinization and centrifugation, and 10% were set aside for RNA extraction while 90% were used for binding analysis. […]
After preparation of the cDNA was complete, real-time quantitative PCR (qPCR) was performed on a QuantStudio 6 qPCR instrument at the Harvard Medical School Center for Molecular Interactions using PowerUp™ SYBR® Green Master Mix from Applied Biosystems Life Technologies. […] Fold differences in Tmem97 expression levels were calculated using the ΔΔCT method 43. […]
Background: In qPCR the cycle at which signal appears reflects the starting amount.

T1 sequence (Q5BJF2 whole entry): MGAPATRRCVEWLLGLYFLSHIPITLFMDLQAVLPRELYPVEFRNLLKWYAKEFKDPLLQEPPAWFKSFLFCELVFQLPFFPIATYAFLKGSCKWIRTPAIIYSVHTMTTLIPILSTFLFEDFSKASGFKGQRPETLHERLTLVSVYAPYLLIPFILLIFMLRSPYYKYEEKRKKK
Sequence of sigma-2 receptor (Homo sapiens, UniProt Q5BJF2) (Q5BJF2 whole entry, species assumed): as the sequence (Q5BJF2 whole entry) above
T2 sequence (O00264 whole entry, species assumed): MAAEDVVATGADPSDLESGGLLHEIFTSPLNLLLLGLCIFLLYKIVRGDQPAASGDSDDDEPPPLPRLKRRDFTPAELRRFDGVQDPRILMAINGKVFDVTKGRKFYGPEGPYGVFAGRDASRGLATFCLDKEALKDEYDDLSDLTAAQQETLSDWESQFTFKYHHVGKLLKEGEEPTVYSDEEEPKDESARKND

Take `COc1cccc2c1CCCC2CCCN1CCN(C2CCCCC2)CC1` (centres unmarked) [PB-28]: the “affinity of the ligand for TMEM97 compared with previously reported affinities” value on human TMEM97 is on record as “essentially identical to previously report sigma-2 receptor binding affinities; also recorded: essentially identical to previously reported affinities”.

Consider `Cc1ccccc1NC(=N)Nc1ccccc1C` [^3H DTG, ^3H 1,3-di-o-tolylguanidine], for which, at PGRMC1, the “^3H DTG binding” value is “did not lead to increased”.

For the molecule `COc1cc2c(cc1OC)CN(CCc1ccc(NC(=O)c3cccc4c(=O)c5cccc(OC)c5[nH]c34)cc1)CC2` [Elacridar], the “affinity of the ligand for TMEM97 compared with previously reported affinities” value at human TMEM97 is reported as “essentially identical to previously reported affinities”. In addition, the “binding affinity in MCF-7 cell membranes compared with Sf9 membranes overexpressing TMEM97” value on sigma-2 receptor [1] is recorded as “identical in both”.

On to “siRNA: siRNA against Rattus norvegicus Tmem97 mRNA; sense strand 5′-CAACCUGUUGCGGUGGUACUCUAAG-3′ (SEQ ID NO: 4) (antisense CUUAGAGUACCACCGCAACAGGUUG; chemistry not given here)”, for which, in the data set with sigma-2 receptor [2], the “reduction in sigma-2 expression levels by saturating ^3H DTG binding” value is “near identical reduction”. Moreover, in the data set on Tmem97 mRNA, the “reduction of Tmem97 mRNA expression” value was about 60%.

Take `CC(C)=CCN1CCC2(C)c3cc(O)ccc3CC1C2C` (single isomer, unassigned; (+)) [(+)-pentazocine]: the “affinity of the ligand for TMEM97 compared with previously reported affinities” value on human TMEM97 is on record as “essentially identical to previously report sigma-2 receptor binding affinities; also recorded: essentially identical to previously reported affinities”.

Take `C=CCN(C)CCCCCCOc1ccc(C(=O)c2ccc(Br)cc2)c(F)c1` [Ro 48-8071, (4-Bromophenyl)-[2-fluoro-4-[6-[methyl(prop-2-enyl)amino]hexoxy]phenyl]methanone]: on human TMEM97, the “affinity of the ligand for TMEM97 compared with previously reported affinities” value was “essentially identical to previously reported affinities”. Moreover, the “binding affinity in MCF-7 cell membranes compared with Sf9 membranes overexpressing TMEM97” value on sigma-2 receptor [1] was “identical in both”.

`O=C(CCCN1CCC(O)(c2ccc(Cl)cc2)CC1)c1ccc(F)cc1` [haloperidol]: at human TMEM97, the “affinity of the ligand for TMEM97 compared with previously reported affinities” value was “essentially identical to previously report sigma-2 receptor binding affinities; also recorded: essentially identical to previously reported affinities”.

As for (+)-SKF-10,047, the “affinity of the ligand for TMEM97 compared with previously reported affinities” value on human TMEM97 was “essentially identical to previously report sigma-2 receptor binding affinities; also recorded: essentially identical to previously reported affinities”.
